In ChEMBL document CHEMBL5113529, “Design, Synthesis, and Biological Evaluation of Dual-Target COX-2/CYP51 Inhibitors for the Treatment of Fungal Infectious Diseases” (J Med Chem, 2022):
Active and inactive are the calls of the source. The calls are words filed in the database; no cut-off is given here.

What was measured:
[1] = test system: Candida albicans; experiment: Induction of morphological changes in Candida albicans ATCC SC5314 assessed as disappearance of nucleus measured for 48 to 72 hrs by transmission electron microscopic analysis; format: functional, organism-based; details: time 48-72 hrs
[2] = test system: Candida albicans; experiment: Induction of morphological changes in Candida albicans ATCC SC5314 assessed as cell leakage measured for 96 hrs by transmission electron microscopic analysis; format: functional, organism-based
[3] = organism: Mus musculus; experiment: Antiinflammatory activity in mouse infected with Candida albicans ATCC SC5314 assessed as reduction in MMP-9 expression in spleen in presence of naproxen by hematoxylin staining based inverted microscopic analysis; format: functional
[4] = Toxicity in Candida albicans ATCC SC5314 infected-mouse assessed as effect on body weight at 10 ug per 20 g, ip administered on day 2, 4, 6, 8, 10 and 12 and measured on day 14 in presence of naproxen; format: organism-based; details: in vivo, 336 h, dose 10 µg, time 14 day
[5] = organism: Mus musculus; experiment: Antiinflammatory activity against mouse infected with Candida albicans ATCC SC5314 assessed as reduction in COX-2 expression in spleen in presence of naproxen by Western blot analysis; format: functional; parameters: scale not given: the % may be the effect or the level left
[6] = organism: Mus musculus; experiment: Immunostimulatory activity in mouse infected with Candida albicans ATCC SC5314 assessed as reduction in PD-L1 expression in spleen in presence of naproxen by western blot analysis relative to control; format: functional; parameters: scale not given: the % may be the effect or the level left
[7] = Toxicity in mouse infected with Candida albicans assessed as ALT level in plasma at 10 ug per 20 g, ip administered on day 2, 4, 6, 8, 10 and 12 and measured on day 14 in presence of naproxen (reference value: 43.6 +/- 4.4 IU/L); format: organism-based; details: in vivo, 336 h, dose 10 µg, time 14 day
[8] = test system: Candida albicans; experiment: Antifungal activity against fluconazole- resistant Candida albicans 632 assessed as fungal growth inhibition measured after 72 hrs in presence of naproxen by double dilution method; format: functional
[9] = test system: Cryptococcus neoformans; experiment: Antifungal activity against Cryptococcus neoformans ZKCC 2209 assessed as fungal growth inhibition measured after 72 hrs in presence of naproxen by double dilution method; format: functional
[10] = Toxicity in mouse infected with Candida albicans assessed as BUN level in plasma at 10 ug per 20 g, ip administered on day 2, 4, 6, 8, 10 and 12 and measured on day 14 in presence of naproxen (reference value: 8.2 +/- 0.5 mmol/L); format: organism-based; details: in vivo, 336 h, dose 10 µg, time 14 day
[11] = test system: Pichia kudriavzevii; experiment: Antifungal activity against Candida krusei ATCC 6258 assessed as fungal growth inhibition measured after 72 hrs in presence of naproxen by double dilution method; format: functional
[12] = organism: Mus musculus; experiment: Immunostimulatory activity in mouse infected with Candida albicans ATCC SC5314 assessed as increase in CD8+ expression level in spleen in presence of naproxen by immunohistochemical analysis; format: functional, organism-based
[13] = test system: Candida albicans; experiment: Antifungal actvity against Candida albicans ATCC SC5314 infected in mouse assessed as reduction in infection at 10 ug per 20 g, ip administered on day 2, 4, 6, 8, 10 and 12 and measured on day 14 in presence of naproxen; format: functional, organism-based; details: time 14.0 day
[14] = test system: Candida albicans; experiment: Antifungal activity against fluconazole- resistant Candida albicans 901 assessed as fungal growth inhibition measured after 72 hrs in presence of naproxen by double dilution method; format: functional
[15] = organism: Mus musculus; experiment: Immunostimulatory activity in mouse infected with Candida albicans ATCC SC5314 assessed as increase in CD3+ expression level in spleen in presence of naproxen by immunohistochemical analysis; format: functional, organism-based

COc1ccc2cc([C@H](C)C(=O)NC(Cn3cncn3)C(=O)c3ccccc3)ccc2c1 (stereo not given in full)
Activity [1]: Active | Activity [2]: Active

OC(Cn1cncn1)(Cn1cncn1)c1ccc(F)cc1F [FLUCONAZOLE]
Activity [3]: 26.05 a.u. | Activity [4]: Non-Toxic | Activity [5]: 39.43% | Activity [6]: 14.27% | Activity [7]: 42.6 IU/L | MIC50 [8]: 4 µg/mL | MIC50 [9]: 0.25 µg/mL | Activity [10]: 9.5 IU/L | MIC50 [11]: 1 µg/mL | Activity [12]: Active | Activity [13]: Active | MIC50 [14]: 4 µg/mL | Activity [15]: Active
